From PMC8704606, “The Artemiside-Artemisox-Artemisone-M1 Tetrad: Efficacies against Blood Stage P. falciparum Parasites, DMPK Properties, and the Case for Artemiside” (Pharmaceutics, 2021)
Where two headings read alike, the source gives them in different places.

Assays:
[1] = test system: P. falciparum asexual blood stage artemisinin-resistant clone ARC08-22 (4G) carrying the PfKI3 C580Y mutation; set-up: method as in ref S3; conditions: ref S3, cited from earlier work; for IC50 / IC90: 48 h life cycle, PfKI3 C580Y
[2] = cited from earlier work
[3] = test system: P. falciparum asexual blood stage artemisinin-resistant clone PL08-009 (5C) carrying the PfKI3 C580Y mutation; set-up: method as in ref S3; conditions: ref S3, cited from earlier work; for IC50 / IC90: 36 h life cycle, PfKI3 C580Y
[4] = test system: early-stage (EG) Pf NF54 gametocytes; set-up: method as in PMID 29866868; conditions: early-stage gametocytes >95% stages II-III; 48 h incubation; ± SEM; cited from earlier work
[5] = test system: asexual blood stages of Pf W2 (drug resistant); set-up: method as in PMID 29866868, PMID 31998692; conditions: cited from earlier work; for IC50: asexual blood stage Pf W2, multidrug resistant, SYBR Green I, ± SEM
Toxoplasma gondii (Tg) [6] = test system: Toxoplasma gondii (Tg); set-up: method as in PMID 19635951; conditions: IFN-γ−/− female mice, 10 mg/kg/d for 8 days after cessation of sulfadiazine; cited from earlier work
HepG2 = conditions: ref S3, cited from earlier work; for EC50: read-out: Cytotoxicity EC50 HepG2
[7] = test system: CQ-resistant P. yoelii NS strain; conditions: cited from earlier work; for P. yoelii ED90 po / P. yoelii ED90 sc: Peters four-day test, mice, ref S4 (24); for P. yoelii ED90 sc: subcutaneous; for P. yoelii artesunate index sc: ref S4
P. berghei sporozoites = conditions: cited from earlier work; for Maximum inhibition % P. berghei sporozoites: ref S3; for IC50: luciferase-expressing P. berghei ANKA GFP-Luc-SMcon sporozoites in HepG2 cells, 48 h, ± SD, ref S3 (7)
[8] = test system: asexual blood stages of Pf K1 (drug resistant); set-up: method as in PMID 29866868, PMID 31998692; conditions: cited from earlier work; for IC50: asexual blood stage Pf K1, multidrug resistant, SYBR Green I, ± SEM
[9] = test system: CQ-sensitive P. berghei N strain; conditions: cited from earlier work; for P. berghei ED90 po / P. berghei ED90 sc: Peters four-day test, mice, ref S4 (24); for P. berghei ED90 po: oral daily day 0-3; for P. berghei ED90 sc: subcutaneous daily day 0-3
P. falciparum W2 = test system: P. falciparum W2; set-up: method as in ref S3; conditions: [3H]-hypoxanthine assay; ref S3; cited from earlier work
[10] = test system: type II tachyzoites (PRU-Luc-GFP); conditions: sc 10 mg/kg/d for 8 days; cited from earlier work
[11] = test system: asexual blood stages of Pf NF54 (drug sensitive); set-up: method as in PMID 29866868, PMID 31998692; conditions: asexual blood stage Pf NF54, CQ sensitive; SYBR Green I; ± SEM; cited from earlier work
P. berghei ANKA strain = conditions: cited from earlier work; for outcome of combination with piperaquine: P. berghei ANKA infected mice, ip 0.66 mg/kg with piperaquine 10 mg/kg
Toxoplasma gondii (Tg) [12] = test system: Toxoplasma gondii (Tg); set-up: method as in PMID 19635951; conditions: read-out: EC50 against Tg in vitro; cited from earlier work
TM-C2B = test system: TM-C2B; set-up: method as in ref S2; conditions: [3H]-hypoxanthine assay; ref S2; read-out: Antimalarial activities IC50 TM-C2B; cited from earlier work
W2 (CQ resistant) = test system: W2 (CQ resistant); set-up: method as in ref S2; conditions: [3H]-hypoxanthine assay; ref S2; read-out: Antimalarial activities IC50 W2; cited from earlier work
[13] = test system: TM93-C1088 (atovaquone and CQ resistant); set-up: method as in ref S2; conditions: [3H]-hypoxanthine assay; ref S2; read-out: Antimalarial activities IC50 TM93-C1088; cited from earlier work
[14] = single dose 10 mg/kg, healthy Aotus monkeys; cited from earlier work
D6 (CQ sensitive) = test system: D6 (CQ sensitive); set-up: method as in ref S2; conditions: [3H]-hypoxanthine assay; ref S2; read-out: Antimalarial activities IC50 D6; cited from earlier work
[15] = test system: early-stage (EG) Pf NF54 gametocytes; assay: Luciferase assay, early-stage gametocytes; assay type: cell-based, Plasmodium falciparum; conditions: early-stage gametocytes >95% stages II-III, 48 h incubation, ± SEM
Protocol: For screening artemisox and M1 against early- (EG) and late-stage (LG) gametocytes, the luciferase assay with transgenic NF54-pfs16-GFP-Luc and NF54-Mal8p1.16-GFP-Luc parasite lines was used. With this assay, stage-specificity of gametocytocidal action was established (Table 2). Dose-response curves are in Figures S1d,e and S2d in the Supplementary Material 1. […] As was observed previously for artemisone and artemiside, dose responses for artemisox and M1 could not be obtained at 48 h against late-stage gametocytes.
The same reference compounds with the exception of CQ were used for the early- and late-stage gametocyte assays. Gametocytocidal activity was determined using the transgenic NF54-pfs16-GFP-Luc and NF54-Mal8p1.16-GFP-Luc reporter lines. Compounds were initially screened for activity at a fixed drug concentration of 1 µM, with dose responses subsequently determined using 2-fold serial drug dilutions for 48 h against early-stage gametocytes (day 5 post-induction population, ≥95% stages II–III) and 10-fold serial drug dilutions for 48 h or 72 h against late-stage gametocytes (day 10 post-induction population, ≥90% late-stage [stages IV–V]) (2 to 3% gametocytemia, 2% hematocrit) at 37 °C under 90% N2, 5% CO2, and 5% O2 [6]. No drug washout steps were performed during the drug incubation periods prior to the assays. In all cases, an interference assay was run in parallel to eliminate the possibility of false positives arising through compound interference with the luciferase readout.

[16] = 10 mg/kg/d for 14 days by gavage in sesame oil
[17] = 50 mg/kg/d for 14 days by gavage in sesame oil

| Compound | IC50 [1] [nM] | IC90 [1] [nM] | RI = IC50 for ARC08-22(4G)/IC50 for W2 [1] | neurotoxicity in vivo, effects observed [2, 16] | neurotoxicity in vivo, effects observed [2, 17] | IC50 [3] [nM] | IC90 [3] [nM] | RI = IC50 for PL08-09 (5C)/IC50 for W2 [3] | IC50 [4] [nM] | IC50 [5] [nM] | RI = IC50 W2/IC50 NF54 [5] | mice with prolonged survival, reactivation stage (Toxoplasma gondii (Tg) [6]) [%] | EC50 (HepG2) [nM] | SI = EC50 HepG2/IC50 P. berghei sporozoites (HepG2) | P. yoelii ED90 po [7] [mg/kg] | P. yoelii ED90 sc [7] [mg/kg] | P. yoelii artesunate index sc [7] | IC50 (P. berghei sporozoites) [nM] | IC50 [8] [nM] | RI (resistance index) = IC50 K1/IC50 NF54 [8] | further results |
| --- | --- | --- | --- | --- | --- | --- | --- | --- | --- | --- | --- | --- | --- | --- | --- | --- | --- | --- | --- | --- | --- |
| C[C@H]1[C@H](N2CCSCC2)O[C@@H]2O[C@@]3(C)CC[C@H]4[C@H](C)CC[C@@H]1[C@@]24OO3 [Artemiside 5, Artemiside] | 2.43 | 4.85 | 1.1 | no effects were observed | neurotoxic sequelae including body weight loss, reduced motility, uncoordinated gait, and piloerection | 0.29 | 0.43 | 0.1 | 16.4 ± 1 | 1.75 ± 0.27 | 1.58 | 80 | > 25000 | > 308 | 2.0 | 0.61 | 36.0 | 81.3 | 1.6 ± 0.4 | 1.47 | Maximum inhibition % P. berghei sporozoites (P. berghei sporozoites; at 5 µM): 99.05±1.34%; P. berghei ED90 po [9]: 1.9 mg/kg; P. berghei ED90 sc [9]: 0.51 mg/kg; P. berghei artesunate index sc (ED90 artesunate/ED90 compound) ([9]; ref S4): 14.1; IC50 (P. falciparum W2): 2.21 nM; IC90 (P. falciparum W2): 4.28 nM; mice surviving the infection, acute phase [10]: 60%; IC50 [11]: 1.11 ± 0.17 nM; outcome of combination with piperaquine (P. berghei ANKA strain): survival of all mice, with no recrudescence taking place; outcome in cerebral malaria model (P. berghei ANKA strain; mice infected with P. berghei ANKA, artemiside 3 mg/kg/d ip for 4 days (days 2–5 post-infection)): complete cure; EC50 (Toxoplasma gondii (Tg) [12]): 108 nM |
| C[C@H]1[C@H](N2CCS(=O)(=O)CC2)O[C@@H]2O[C@@]3(C)CC[C@H]4[C@H](C)CC[C@@H]1[C@@]24OO3 [Artemisone 7, Artemisone] | 1.62 | 3.38 | 1.0 | no effects were observed | induced no effects | 0.27 | 0.43 | 0.2 | 1.94 ± 0.11 | 1.6 ± 0.4 | 1.36 | 60 | > 50000 | > 1767 | 5.0 | 3.9 | 5.6 | 28.3 | 1.01 ± 0.19 | 0.85 | IC50 (TM-C2B): 1.1 ± 0.4 nM; IC50 (W2 (CQ resistant)): 1.3 ± 0.5 nM; IC50 [13]: 0.7 ± 0.2 nM; ex vivo antimalarial activity observable up to (post dose) [14]: up to 7 h; IC50 (D6 (CQ sensitive)): 1 ± 0.4 nM; Maximum inhibition % P. berghei sporozoites (P. berghei sporozoites; at 10 µM): 93.35±1.76%; P. berghei ED90 po [9]: 3.1 mg/kg; P. berghei ED90 sc [9]: 1.5 mg/kg; P. berghei artesunate index po (ED90 artesunate/ED90 compound) ([9]; ref S4): 2.3; P. berghei artesunate index sc (ED90 artesunate/ED90 compound) ([9]; ref S4): 3.2; IC50 (P. falciparum W2): 1.69 nM; IC90 (P. falciparum W2): 3.42 nM; mice surviving the infection, acute phase [10]: over 50%; IC50 [11]: 1.2 ± 0.4 nM; outcome of combination with piperaquine (P. berghei ANKA strain): recrudescence with eventual mortality was observed; EC50 (Toxoplasma gondii (Tg) [12]): 120 nM |
| C[C@H]1[C@H](N2CC[S+]([O-])CC2)O[C@@H]2O[C@@]3(C)CC[C@H]4[C@H](C)CC[C@@H]1[C@@]24OO3 [Artemisox 6, Artemisox] | – | – | – | – | – | – | – | – | – | – | – | – | – | – | – | – | – | – | – | – | IC50 ([15]; Plasmodium falciparum, NF54, 48 h): 18.9 nM; IC50 [15]: 18.9 ± 0.98 nM |
